Key:
[1] = target: κ-opioid receptor (Homo sapiens (Human), UniProt P41145); experiment: κ-opioid receptor functional assay (U-2 OS cells); format: biochemical; conditions: for Emax: U-2 OS cells, relative to U69,593
Experimental: Functional [^35S]GTPγS binding assays were conducted as follows. κ opioid receptor membrane solution was prepared by sequentially adding final concentrations of 0.026 μg/μl κ membrane protein (in-house), 10 μg/mL saponin, 3 μM GDP and 0.20 nM [^35S]GTPγS to binding buffer (100 mM NaCl, 10 mM MgCl2, 20 mM HEPES, pH 7.4) on ice. The prepared membrane solution (190 μl/well) was transferred to 96-shallow well polypropylene plates containing 10 μl of 20× concentrated stock solutions of agonist prepared in DMSO. Plates were incubated for 30 min at a temperature of about 25° C. with shaking. Reactions were terminated by rapid filtration onto 96-well Unifilter GF/B filter plates (Perkin Elmer, Shelton, Conn.) using a 96-well tissue harvester (Packard) and followed by three filtration washes with 200 μl ice-cold binding buffer (10 mM NaH2PO4, 10 mM Na2HPO4, pH 7.4). Filter plates were subsequently dried at 50° C. for 2-3 hours. Fifty μl/well scintillation cocktail (Perkin Elmer, Shelton, Conn.) was added and plates were counted in a Packard Top-Count for 1 min/well.
κ GTP EC50 is the concentration of a compound providing 50% of the maximal response for the compound at a κ receptor.
κ GTP Emax (%) is the maximal effect elicited by a compound relative to the effect elicited by U69,593.
The following TABLE 5 provides results on the activity response of certain Compounds of the Invention at the μ- and κ-opioid receptors determined as described above using U-2 OS cells.

[2] = target: T1, μ-opioid receptor (Homo sapiens (Human), UniProt P35372); experiment: μ-opioid receptor [35S]GTPγS functional assay (HEK-293 cells); format: biochemical; conditions: for Emax: HEK-293 cells, relative to DAMGO
Experimental: (§1) [^35S]GTPγS functional assays were conducted using freshly thawed μ-receptor membranes prepared in-house from a cell line expressing recombinant μ opioid receptor in a HEK-293, CHO or U-2 OS cell background, or purchased from a commercial source (Perkin Elmer, Shelton, Conn.; or DiscovRx, Fremont, Calif.). Assay reactions were prepared by sequentially adding the following reagents to binding buffer (100 mM NaCl, 10 mM MgCl2, 20 mM HEPES, pH 7.4) on ice (final concentrations indicated): membrane protein (0.026 mg/mL), saponin ([…]), GDP ([…]) and [^35S]GTPγS (0.20 nM; Perkin Elmer, Shelton, Conn.). The prepared membrane solution (190 μl/well) was transferred to 96-shallow well polypropylene plates containing 10 μl of 20× concentrated stock solutions of the agonist [D-Ala^2, N-methyl-Phe^4 Gly-ol^5]-enkephalin (DAMGO) prepared in dimethyl sulfoxide (DMSO). Plates were incubated for 30 min at about 25° C. with shaking. Reactions were terminated by rapid filtration onto 96-well Unifilter GF/B filter plates (Perkin Elmer, Shelton, Conn.) using a 96-well tissue harvester (Perkin Elmer, Shelton, Conn.) followed by three filtration washes with 200 μl of ice-cold wash buffer (10 mM NaH2PO4, 10 mM Na2HPO4, pH 7.4). Filter plates were subsequently dried at 50° C. for 2-3 hours. BetaScint scintillation cocktail (Perkin Elmer, Shelton, Conn.) was added (50 μl/well) and plates were counted using a Packard Top-Count for 1 min/well. Data were analyzed using the sigmoidal dose-response curve fitting functions in GraphPad PRISM v. 3.0, or an in-house function for non-linear, sigmoidal dose-response curve-fitting. [^35S]GTPγS functional assays can also be conducted using freshly thawed μ-receptor membranes prepared from a cell line expressing recombinant μ opioid receptor in a CHO-K1 cell background.
(§2) μ GTP EC50 is the concentration of a compound providing 50% of the maximal response for the compound at a μ-opioid receptor.
(§3) μ GTP Emax (%) is the maximal effect elicited by a compound relative to the effect elicited by DAMGO, a standard μ agonist.
In TABLE 4, activity response of certain Compounds of the Invention to the μ- and κ-opioid receptors was determined as described above for functional assays using HEK-293 cells.

[3] = target: T1, μ-opioid receptor; experiment: μ-opioid receptor functional assay (U-2 OS cells); format: biochemical; conditions: for Emax: U-2 OS cells, relative to DAMGO
Experimental: as §1, §2, §3

[4] = target: recombinant human kappa opioid receptor (κ) (Homo sapiens (Human), UniProt P41145); experiment: κ-opioid receptor radioligand dose-displacement binding assay (HEK-293 cells)
Experimental: Membranes from HEK-293 cells, CHO cells or U-2 OS cells expressing the recombinant human kappa opioid receptor (κ) were prepared by lysing cells in ice cold hypotonic buffer (2.5 mM MgCl2, 50 mM HEPES, pH 7.4) (10 mL/10 cm dish) followed by homogenization with a tissue grinder/Teflon pestle. Membranes from a cell line naturally expressing kappa opioid receptor can also be used. Membranes were collected by centrifugation at 30,000×g for 15 min at 4° C. and pellets were resuspended in hypotonic buffer to a final concentration of 1-3 mg/mL. Protein concentrations were determined using the BioRad protein assay reagent with bovine serum albumen as standard. Aliquots of κ receptor membranes were stored at −80° C.
Radioligand dose displacement assays used 0.4 nM [^3H]-U69,593 (GE Healthcare, Piscataway, N.J.; 40 Ci/mmole) with 15 μg membrane protein (recombinant κ opioid receptor expressed in HEK 293 cells; in-house prep) in a final volume of 200 μl binding buffer (5% DMSO, 50 mM Trizma base, pH 7.4). Non-specific binding was determined in the presence of 10 μM unlabeled naloxone or U69,593. All reactions were performed in 96-well polypropylene plates for 1 hour at a temperature of about 25° C. Binding reactions were terminated by rapid filtration onto 96-well Unifilter GF/C filter plates (Perkin Elmer, Shelton, Conn.) presoaked in 0.5% polyethylenimine (Sigma). Harvesting was performed using a 96-well tissue harvester (Perkin Elmer, Shelton, Conn.) followed by five filtration washes with 200 μl ice-cold binding buffer. Filter plates were subsequently dried at 50° C. for 1-2 hours. Fifty μl/well scintillation cocktail (Perkin Elmer, Shelton, Conn.) was added and plates were counted in a Packard Top-Count for 1 min/well.
(§4) In TABLE 3, binding affinity of certain Compounds of the Invention to the μ- and κ-opioid receptors was determined as described above using HEK-293 cells.

[5] = target: T1, μ-opioid receptor; experiment: μ-opioid receptor radioligand dose-displacement binding assay (HEK-293 cells)
Experimental: Radioligand dose-displacement binding assays for μ-opioid receptors used 0.3 nM [^3H]-diprenorphine (Perkin Elmer, Shelton, Conn.), with […] membrane protein/well in a final volume of 500 μl binding buffer (10 mM MgCl2, 1 mM EDTA, 5% DMSO, 50 mM HEPES, pH 7.4). Reactions were carried out in the absence or presence of increasing concentrations of unlabeled naloxone. All reactions were conducted in 96-deep well polypropylene plates for 2 hours at room temperature. Binding reactions were terminated by rapid filtration onto 96-well Unifilter GF/C filter plates (Perkin Elmer, Shelton, Conn.), presoaked in 0.5% polyethylenimine using a 96-well tissue harvester (Perkin Elmer, Shelton, Conn.) followed by performing three filtration washes with 500 μl of ice-cold binding buffer. Filter plates were subsequently dried at 50° C. for 2-3 hours. BetaScint scintillation cocktail (Perkin Elmer, Shelton, Conn.) was added (50 μl/well), and plates were counted using a Packard Top-Count for 1 min/well. The data were analyzed using the one-site competition curve fitting functions in GraphPad PRISM™ v. 3.0 or higher (San Diego, Calif.), or an in-house function for one-site competition curve-fitting.
as §4

SMILES | EC50 [1] | Emax [1] | EC50 [2] | Emax [2] | EC50 [3] | Emax [3] | Ki [4] | Ki [5]
COc1ccc2c(c1)[C@]13CCN(CC4CC4)[C@H](C2)[C@]12CC[C@@](N)(CO2)C3 [Compound 8, (4bR,6S,8aS,9R)-11-(cyclopropylmethyl)-3-methoxy-5,6,7,8,9,10-hexahydro-9,4b-(epiminoethano)-8a,6-(epoxymethano)phenanthren-6-amine] | 34.5 ± 3.61 nM | 112 ± 1.33% | 1110 ± 242 nM | 27.8 ± 2.17% | 88.8 ± 20.6 nM | 106 ± 2.96% | 4.72 ± 1.07 nM | 773 ± 161 nM
COc1ccc2c(c1)[C@]13CCN(CC4CC4)[C@H](C2)[C@]12CC[C@@](NCc1ccccc1)(CO2)C3 [Compound 10, (4bR,6S,8aS,9R)-N-benzyl-11-(cyclopropylmethyl)-3-methoxy-5,6,7,8,9,10-hexahydro-9,4b-(epiminoethano)-8a,6-(epoxymethano)phenanthren-6-amine] | 0.23 ± 0.01 nM | 107 ± 5.36% | 53.3 ± 3.93 nM | 31.7 ± 1.67% | 2.08 ± 0.12 nM | 110 ± 2.52% | 0.026 nM | 25.9 ± 5.36 nM
COc1ccc2c(c1)[C@]13CCN(CC4CC4)[C@H](C2)[C@]12CC[C@@](NCC1CCCCC1)(CO2)C3 [Compound 11, (4bR,6S,8aS,9R)—N-(cyclohexylmethyl)-11-(cyclopropylmethyl)-3-methoxy-5,6,7,8,9,10-hexahydro-9,4b-(epiminoethano)-8a,6-(epoxymethano)phenanthren-6-amine] | 0.042 nM | 101.3 ± 0.88% | 1.78 ± 0.05 nM | 75.7 ± 4.1% | 0.033 nM | 101 ± 2.08% | 0.052 ± 0.015 nM | 0.93 ± 0.11 nM
COc1ccc2c(c1)[C@]13CCN(CC4CC4)[C@H](C2)[C@]12CC[C@@](NC(=O)c1ccccc1)(CO2)C3 [Compound 18, N-((4bR,6S,8aS,9R)-11-(cyclopropylmethyl)-3-methoxy-5,6,7,8,9,10-hexahydro-9,4b-(epiminoethano)-8a,6-(epoxymethano)phenanthren-6-yl)benzamide] | 0.42 ± 0.016 nM | 111 ± 2.6% | 175 ± 21.7 nM | 41 ± 1.58% | 7.53 ± 0.69 nM | 107 ± 8.35% | 0.032 ± 0.01 nM | 35.9 ± 8.18 nM
COc1ccc2c(c1)[C@]13CCN(CC4CC4)[C@H](C2)[C@]12CC[C@@](NC(=O)CCc1ccccc1)(CO2)C3 [Compound 19, N-((4bR,6S,8aS,9R)-11-(cyclopropylmethyl)-3-methoxy-5,6,7,8,9,10-hexahydro-9,4b-(epiminoethano)-8a,6-(epoxymethano)phenanthren-6-yl)-3-phenylpropanamide] | 2.84 ± 0.33 nM | 109.7 ± 0.33% | 41.2 ± 12.8 nM | 29.8 ± 1.96% | 1.37 ± 0.11 nM | 102 ± 5.7% | 1.58 ± 0.44 nM | 9.26 ± 3.2 nM
COc1ccc2c(c1)[C@]13CCN(CC4CC4)[C@H](C2)[C@]12CC[C@@](NC(=O)c1ccc(Cl)cc1)(CO2)C3 [Compound 20, N-((4bR,6S,8aS,9R)-11-(cyclopropylmethyl)-3-methoxy-5,6,7,8,9,10-hexahydro-9,4b-(epiminoethano)-8a,6-(epoxymethano)phenanthren-6-yl)-4-chlorobenzamide] | 3.24 ± 0.082 nM | 115 ± 2.85% | 52.4 ± 11.7 nM | 20.2 ± 0.48% | 3.23 ± 0.13 nM | 102 ± 2.85% | 0.6 ± 0.098 nM | 24.7 ± 3.5 nM
COc1ccc2c(c1)[C@]13CCN(CC4CC4)[C@H](C2)[C@]12CC[C@@](NC(=O)C1CC1)(CO2)C3 [Compound 22, N-((4bR,6S,8aS,9R)-11-(cyclopropylmethyl)-3-methoxy-5,6,7,8,9,10-hexahydro-9,4b-(epiminoethano)-8a,6-(epoxymethano)phenanthren-6-yl)cyclopropanecarboxamide] | 0.9 ± 0.096 nM | 111 ± 2.6% | 939 ± 394 nM | 18 ± 0.41% | 71.2 ± 10.8 nM | 90.7 ± 2.73% | 0.3 ± 0.055 nM | 126 ± 20.7 nM
COc1ccc2c(c1)[C@]13CCN(CC4CC4)[C@H](C2)[C@]12CC[C@@](NC(=O)CC(F)(F)F)(CO2)C3 [Compound 23, N-((4bR,6S,8aS,9R)-11-(cyclopropylmethyl)-3-methoxy-5,6,7,8,9,10-hexahydro-9,4b-(epiminoethano)-8a,6-(epoxymethano)phenanthren-6-yl)-3,3,3-trifluoropropanamide] | 1.79 ± 0.25 nM | 115 ± 3.06% | 419 ± 108 nM | 39.5 ± 2.1% | 21.6 ± 1.38 nM | 98.7 ± 1.45% | 0.66 ± 0.22 nM | 136 ± 35.7 nM
COc1ccc2c(c1)[C@]13CCN(CC4CC4)[C@H](C2)[C@]12CC[C@@](NS(=O)(=O)c1ccc(Cl)cc1)(CO2)C3 [Compound 24, 4-Chloro-N-((4bR,6S,8aS,9R)-11-(cyclopropylmethyl)-3-methoxy-5,6,7,8,9,10-hexahydro-9,4b-(epiminoethano)-8a,6-(epoxymethano)phenanthren-6-yl)-benzenesulfonamide] | 0.11 ± 0.011 nM | 114 ± 2.73% | > 20000 nM | 6% | 0.25 ± 0.014 nM | 71.7 ± 0.67% | 0.057 ± 0.01 nM | 0.29 ± 0.043 nM

From patent US9862726B2, “Opioid receptor modulating oxabicyclo[2.2.2]octane morphinans” (PURDUE PHARMA L.P., priority 2013, dated 2018)
